Test results: patent US8618175B2, “Ultrasound medical gel composition etherified hydroxyethylcellulose” (Brussels Ventures Corp., priority 2010, dated 2013)

Test: Spreading ability of solvents, drop on Standard No. 1 filter paper
Format: physicochemical
Conditions: for Drop Diameter After Set period of time 0(h) / Drop Diameter After Set period of time 0.5(h) / Drop Diameter After Set period of time 1(h) / Drop Diameter After Set period of time 8(h): average of 3 trials
Description: The spreading ability of various solvents was measured. Solvents including an antimicrobial agent, as well as solvents without an antimicrobial agent, were tested. Benzalkonium chloride was used as an antimicrobial agent. Spreading ability was measured by dropping one drop of liquid onto Standard No. 1 filter paper, and measuring the diameter of each drop at various time periods. The results are shown below in table 3, and reflect the average results obtained after 3 trials for each sample.

SMILES | % Increase in drop diameter after 8 h (antimicrobial agent 0 wt %) | Drop Diameter After Set period of time 0(h) (antimicrobial agent 0 wt %) | Drop Diameter After Set period of time 0.5(h) (antimicrobial agent 0 wt %) | Drop Diameter After Set period of time 1(h) (antimicrobial agent 0 wt %) | Drop Diameter After Set period of time 8(h) (antimicrobial agent 0 wt %) | % Increase in drop diameter after 8 h (benzalkonium chloride 3.2 wt %) | Drop Diameter After Set period of time 0(h) (benzalkonium chloride 3.2 wt %) | Drop Diameter After Set period of time 0.5(h) (benzalkonium chloride 3.2 wt %) | Drop Diameter After Set period of time 1(h) (benzalkonium chloride 3.2 wt %) | Drop Diameter After Set period of time 8(h) (benzalkonium chloride 3.2 wt %)
OCC(O)CO [Glycerin 99%, Glycerin] | 357% | 7.0 | 22.3 | 23.6 | 32.0 | 632% | 4.0 | 22.6 | 24.0 | 29.3
OCCCO [Propanediol (Zemea ™), Propanediol] | 263% | 10.6 | 32 | 33.5 | 38.5 | 249% | 10.6 | 30.3 | 32.3 | 37.0
CC(O)CO (stereo not drawn) [Propylene Glycol] | 120% | 10.0 | 28.0 | 29.0 | 22.0 | 100% | 12.3 | 28.0 | 29.0 | 24.6
